Measurements from paper PMC6210068 (ACS Omega, 2018).
Read-outs that look alike come from different tables or passages of the source.

Tests used:
DOR [1] = molecular target: T1, DOR (Homo sapiens, UniProt P41143); experiment: Radioligand binding at DOR
rat kidney TSPO = rat kidney TSPO (Rattus norvegicus, UniProt P16257); experiment: Radioligand binding at TSPO; settings: for Ki: TSPO, rat TSPO, [3H]PK11195
hDAT = hDAT (Homo sapiens, UniProt Q01959); experiment: Radioligand binding at DAT; settings: 10 μM; [3H]WIN35428; negative = enhanced radioligand binding
hDAT, sequence (Q01959 whole entry): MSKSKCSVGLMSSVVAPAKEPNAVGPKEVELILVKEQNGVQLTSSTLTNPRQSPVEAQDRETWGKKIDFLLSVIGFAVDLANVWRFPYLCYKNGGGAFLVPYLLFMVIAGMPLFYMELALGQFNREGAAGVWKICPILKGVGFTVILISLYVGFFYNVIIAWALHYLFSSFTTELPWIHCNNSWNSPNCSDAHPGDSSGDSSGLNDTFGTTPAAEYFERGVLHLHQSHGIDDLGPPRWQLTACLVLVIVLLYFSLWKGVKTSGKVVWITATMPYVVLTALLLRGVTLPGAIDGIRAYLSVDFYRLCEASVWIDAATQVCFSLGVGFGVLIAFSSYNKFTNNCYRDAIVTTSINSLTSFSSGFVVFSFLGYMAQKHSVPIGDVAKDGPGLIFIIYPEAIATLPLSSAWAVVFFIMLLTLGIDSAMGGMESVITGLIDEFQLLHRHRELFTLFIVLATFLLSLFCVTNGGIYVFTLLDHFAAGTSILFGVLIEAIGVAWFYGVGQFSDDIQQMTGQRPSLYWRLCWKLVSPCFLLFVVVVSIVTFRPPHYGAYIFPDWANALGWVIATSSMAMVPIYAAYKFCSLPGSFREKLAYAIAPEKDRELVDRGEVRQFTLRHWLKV

rat σ2 receptor = molecular target: T2, rat σ2 receptor (Rattus norvegicus, UniProt Q5U3Y7); experiment: PDSP binding, σ2 receptor
T2 sequence (Q5U3Y7 1-176): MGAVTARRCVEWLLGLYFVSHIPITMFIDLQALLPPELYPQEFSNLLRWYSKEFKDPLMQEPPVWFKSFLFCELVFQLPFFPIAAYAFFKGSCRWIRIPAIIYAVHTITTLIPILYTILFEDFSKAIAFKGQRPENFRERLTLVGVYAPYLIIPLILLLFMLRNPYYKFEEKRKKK

hA1AR = molecular target: T3, hA1AR (Homo sapiens, UniProt P30542); experiment: hA1AR binding; settings: for inhibition at 10 µM: read-out: binding inhibition at hA1AR (% at 10 μM)
T3 sequence (P30542 1-326): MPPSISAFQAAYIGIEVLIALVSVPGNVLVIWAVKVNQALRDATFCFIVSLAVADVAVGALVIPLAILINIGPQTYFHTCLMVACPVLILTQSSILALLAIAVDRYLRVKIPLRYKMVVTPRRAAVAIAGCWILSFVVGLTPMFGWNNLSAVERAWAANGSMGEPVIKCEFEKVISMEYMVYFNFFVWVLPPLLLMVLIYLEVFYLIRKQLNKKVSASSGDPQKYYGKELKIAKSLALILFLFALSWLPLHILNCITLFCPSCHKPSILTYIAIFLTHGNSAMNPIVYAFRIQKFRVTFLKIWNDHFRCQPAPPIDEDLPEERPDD

KOR [2] = molecular target: T4, KOR (Homo sapiens, UniProt P41145); experiment: biochemical; assay type: binding; settings: for Ki: KOR, [3H]U69593, mean ± SEM, N = 2–4
T4 sequence (P41145 whole entry): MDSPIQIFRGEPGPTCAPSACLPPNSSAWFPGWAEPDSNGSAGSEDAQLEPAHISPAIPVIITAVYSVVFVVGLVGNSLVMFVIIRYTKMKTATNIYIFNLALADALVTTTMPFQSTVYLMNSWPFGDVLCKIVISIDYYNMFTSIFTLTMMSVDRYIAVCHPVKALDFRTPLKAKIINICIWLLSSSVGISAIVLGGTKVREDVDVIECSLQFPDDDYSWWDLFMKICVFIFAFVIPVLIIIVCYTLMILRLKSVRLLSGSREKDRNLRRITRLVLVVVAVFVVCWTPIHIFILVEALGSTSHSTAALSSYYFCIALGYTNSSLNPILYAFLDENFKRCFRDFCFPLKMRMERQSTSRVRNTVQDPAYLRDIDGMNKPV

MOR [3] = molecular target: T5, MOR (Homo sapiens, UniProt P35372); experiment: biochemical; assay type: binding; settings: for MOR, inhibition of radioligand binding at 10 μM (class): Table 2
T5 sequence (P35372 whole entry): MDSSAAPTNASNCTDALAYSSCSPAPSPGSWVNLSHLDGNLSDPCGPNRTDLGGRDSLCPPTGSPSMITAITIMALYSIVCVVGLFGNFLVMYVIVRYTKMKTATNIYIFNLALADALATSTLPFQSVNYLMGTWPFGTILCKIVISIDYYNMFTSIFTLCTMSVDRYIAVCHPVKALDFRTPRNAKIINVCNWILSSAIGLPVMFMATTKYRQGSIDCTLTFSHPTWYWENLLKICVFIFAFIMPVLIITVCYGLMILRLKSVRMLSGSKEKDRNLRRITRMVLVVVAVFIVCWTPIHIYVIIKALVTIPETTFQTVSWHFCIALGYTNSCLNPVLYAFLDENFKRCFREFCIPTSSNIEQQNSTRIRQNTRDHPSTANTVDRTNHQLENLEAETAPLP

hA3AR = molecular target: T6, hA3AR (Homo sapiens, UniProt P0DMS8); experiment: A3AR binding
T6 sequence (P0DMS8 1-318): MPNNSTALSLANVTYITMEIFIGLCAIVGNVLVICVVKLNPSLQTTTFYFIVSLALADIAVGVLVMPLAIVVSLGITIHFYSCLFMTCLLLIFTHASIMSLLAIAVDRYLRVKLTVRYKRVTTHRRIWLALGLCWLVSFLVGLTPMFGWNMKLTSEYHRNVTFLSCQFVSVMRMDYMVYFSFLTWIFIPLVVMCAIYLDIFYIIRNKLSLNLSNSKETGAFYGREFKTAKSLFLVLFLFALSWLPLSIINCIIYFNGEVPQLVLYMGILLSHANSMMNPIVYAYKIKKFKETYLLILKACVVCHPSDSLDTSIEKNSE

KOR [4] = molecular target: T4, KOR; assay type: cell-based
hA2AAR = hA2AAR (Homo sapiens, UniProt P29274); experiment: hA2AAR binding; settings: read-out: binding inhibition at hA2AAR (% at 10 μM)
hA2AAR, sequence (P29274 whole entry): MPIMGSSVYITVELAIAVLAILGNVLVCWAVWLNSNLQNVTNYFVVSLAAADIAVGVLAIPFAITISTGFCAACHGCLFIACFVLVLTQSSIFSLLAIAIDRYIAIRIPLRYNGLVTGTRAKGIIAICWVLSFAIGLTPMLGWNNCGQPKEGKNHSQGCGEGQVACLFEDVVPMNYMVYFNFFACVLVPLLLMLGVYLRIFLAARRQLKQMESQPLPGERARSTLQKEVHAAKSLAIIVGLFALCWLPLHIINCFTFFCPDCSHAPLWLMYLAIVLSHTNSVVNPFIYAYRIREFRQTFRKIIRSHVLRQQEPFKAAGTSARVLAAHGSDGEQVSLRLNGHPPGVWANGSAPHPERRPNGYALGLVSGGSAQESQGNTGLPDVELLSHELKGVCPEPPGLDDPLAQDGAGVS

hNOP = hNOP (Homo sapiens, UniProt P41146); experiment: Radioligand binding at NOP
hNOP, sequence (P41146 whole entry): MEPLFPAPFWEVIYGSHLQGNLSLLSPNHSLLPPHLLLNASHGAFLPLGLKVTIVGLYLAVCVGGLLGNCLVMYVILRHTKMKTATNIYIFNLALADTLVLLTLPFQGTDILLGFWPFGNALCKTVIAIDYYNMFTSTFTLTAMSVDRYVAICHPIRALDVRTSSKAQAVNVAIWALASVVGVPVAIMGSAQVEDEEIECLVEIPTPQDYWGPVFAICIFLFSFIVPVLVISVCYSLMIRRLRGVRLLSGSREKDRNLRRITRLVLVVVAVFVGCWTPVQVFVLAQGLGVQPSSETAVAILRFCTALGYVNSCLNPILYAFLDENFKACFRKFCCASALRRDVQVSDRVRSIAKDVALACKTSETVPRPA

DOR [5] = molecular target: T1, DOR; experiment: β-arrestin-recruitment TANGO assay at DOR; assay type: cell-based; settings: 10 μM
KOR [6] = molecular target: T4, KOR; experiment: β-arrestin-recruitment TANGO assay at KOR; assay type: cell-based; settings: 10 μM; vs naloxone 121 = 100% inhibition; agonist 109 (3 nM)
MOR [7] = molecular target: T5, MOR; experiment: β-arrestin-recruitment TANGO assay at MOR; assay type: cell-based; settings: 10 μM

T1 sequence (P41143 whole entry): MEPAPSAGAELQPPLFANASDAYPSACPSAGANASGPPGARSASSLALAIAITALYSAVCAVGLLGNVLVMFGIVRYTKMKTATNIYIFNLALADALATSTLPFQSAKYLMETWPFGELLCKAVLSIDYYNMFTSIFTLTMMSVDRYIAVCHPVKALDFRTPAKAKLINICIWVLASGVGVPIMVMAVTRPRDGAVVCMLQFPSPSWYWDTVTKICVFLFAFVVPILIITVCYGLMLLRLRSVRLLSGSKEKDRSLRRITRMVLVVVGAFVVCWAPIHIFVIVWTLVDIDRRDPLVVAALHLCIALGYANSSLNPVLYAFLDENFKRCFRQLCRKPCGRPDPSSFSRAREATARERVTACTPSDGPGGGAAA
rat kidney TSPO, sequence (P16257 whole entry): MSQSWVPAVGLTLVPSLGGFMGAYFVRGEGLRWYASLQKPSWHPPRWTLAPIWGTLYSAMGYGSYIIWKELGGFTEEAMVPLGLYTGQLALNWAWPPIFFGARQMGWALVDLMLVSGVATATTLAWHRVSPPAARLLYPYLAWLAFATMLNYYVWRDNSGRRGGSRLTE

Compound | Ki (rat kidney TSPO) | DAT, inhibition, % of control at 10 μM (hDAT) | Ki (rat σ2 receptor) | inhibition at 10 µM (hA1AR) | Ki (KOR [2]) | Ki (hA3AR) | Ki (DOR [1]) | Ki (MOR [3]) | further results
O[C@@H]1[C@H](O)[C@@H]2C[C@@H]2[C@H]1n1cnc2c(NCCc3ccccc3)nc(C#Cc3ccccc3Cl)nc21 [compound 52] | 877 ± 368 nM | 7% | 1820 nM |  |  |  |  |  | DOR, inhibition of radioligand binding at 10 μM (class) (DOR [1]; Table 4): ^f (30–50% inhibition of radioligand binding at 10 μM)
CCCNc1nc(C#Cc2ccc(Cl)s2)nc2c1ncn2[C@H]1[C@H](O)[C@H](O)[C@]2(C(=O)NC)C[C@H]12 [compound 18] | 1310 ± 210 nM | –159% |  | 22% |  |  |  |  | DOR, inhibition of radioligand binding at 10 μM (class) (DOR [1]; Table 1): ^e (30–50% inhibition of radioligand binding at 10 μM)
CNC(=O)[C@@]12C[C@@H]1[C@@H](n1cnc3c(NCc4cccc(Cl)c4)nc(C#Cc4ccc(F)cc4)nc31)[C@H](O)[C@@H]2O [compound 7] | ~300 nM | 21% |  | 22% |  |  |  |  | 
CNc1nc(C#Cc2ccc(Cl)s2)nc2c1ncn2[C@H]1[C@H](O)[C@H](O)[C@]2(C(=O)OCCC3CCCCC3)C[C@H]12 [compound 34] |  | <20% |  |  | > 10000 nM | 334 ± 132 nM |  |  | DOR, inhibition of radioligand binding at 10 μM (class) (DOR [1]; Table 2): ^c (30–50% inhibition of radioligand binding at 10 μM); MOR, inhibition of radioligand binding at 10 μM (class) (MOR [3]): ^d (<30% inhibition of radioligand binding at 10 μM); TSPO, inhibition of radioligand binding at 10 μM (class) (rat kidney TSPO; Table 2): ^c (30–50% inhibition of radioligand binding at 10 μM)
CCOC(=O)[C@@]12C[C@@H]1[C@@H](n1ccc3c(NC)nc(I)nc31)[C@H](O)[C@@H]2O [compound 39, Ethyl(1S,2R,3S,4R,5S)-2,3-dihydroxy-4-(2-iodo-4-(methylamino)-7H-pyrrolo[2,3-d]pyrimidin-7-yl)bicyclo[3.1.0]hexane-1-carboxylate] |  | <10% |  |  | 104 ± 35 nM | 390 ± 139 nM | 1590 ± 280 nM |  | MOR, inhibition of radioligand binding at 10 μM (class) (MOR [3]): ^c (30–50% inhibition of radioligand binding at 10 μM); TSPO, inhibition of radioligand binding at 10 μM (class) (rat kidney TSPO; Table 2): ^d (<30% inhibition of radioligand binding at 10 μM); βarrestin2 recruitment, Imax (% 120) (KOR [4]; antagonism of 1 μM U69593 98): 77 ± 3 % 120
CCOC(=O)[C@@]12C[C@@H]1[C@@H](n1ccc3c(NCC4CC4)nc(C#Cc4ccccc4)nc31)[C@H](O)[C@@H]2O [compound 42, Ethyl(1S,2R,3S,4R,5S)-4-(4-((cyclopropylmethyl)amino)-2-(phenylethynyl)-7H-pyrrolo[2,3-d]pyrimidin-7-yl)-2,3-dihydroxybicyclo[3.1.0]hexane-1-carboxylate] | 4470 ± 1330 nM | –13% | 1110 nM | 34% | 1400 ± 210 nM | 791 ± 433 nM |  | 1300 ± 530 nM | DOR, inhibition of radioligand binding at 10 μM (class) (DOR [1]; Table 2): ^c (30–50% inhibition of radioligand binding at 10 μM); inhibition at 10 µM (hA2AAR): 20%
CCOC(=O)[C@@]12C[C@@H]1[C@@H](n1ccc3c(NC4CC4)nc(C#Cc4ccccc4)nc31)[C@H](O)[C@@H]2O [compound 41, Ethyl(1S,2R,3S,4R,5S)-4-(4-(cyclopropylamino)-2-(phenylethynyl)-7H-pyrrolo[2,3-d]pyrimidin-7-yl)-2,3-dihydroxybicyclo[3.1.0]hexane-1-carboxylate] |  | –312% |  | 44% | 852 ± 137 nM | 228 ± 115 nM | 2400 ± 90 nM | 2110 ± 590 nM | TSPO, inhibition of radioligand binding at 10 μM (class) (rat kidney TSPO; Table 2): ^c (30–50% inhibition of radioligand binding at 10 μM); inhibition at 10 µM (hA2AAR): 25%
CNC(=O)[C@@]12C[C@@H]1[C@@H](n1cnc3c(NCc4cccc(Cl)c4)nc(C#Cc4ccc(F)c(F)c4)nc31)[C@H](O)[C@@H]2O [compound 4] | ~300 nM | 16% |  |  |  |  | 2480 ± 790 nM |  | Ki (hNOP): 4560 ± 450 nM; DOR Antag (%) (DOR [5]; vs naloxone 121 = 100% inhibition): 25.3%; DOR Ag (%) (DOR [5]; vs standard agonist = 100%): –10.3%; KOR Antag (%) (KOR [6]): 125%; MOR Antag (%) (MOR [7]; vs naloxone 121 = 100% inhibition, agonist 99 (300 nM)): 18.8%; MOR Ag (%) (MOR [7]; vs standard agonist = 100%): –1.6%
O[C@@H]1[C@H](O)[C@@H]2C[C@@H]2[C@H]1n1cnc2c(NCCc3ccccc3)nc(C#Cc3ccccc3)nc21 [compound 51] |  | 24% | 1480 nM |  |  |  |  |  | DOR, inhibition of radioligand binding at 10 μM (class) (DOR [1]; Table 4): ^g (<30% inhibition of radioligand binding at 10 μM); TSPO, inhibition of radioligand binding at 10 μM (class) (rat kidney TSPO; Table 4): ^g (<30% inhibition of radioligand binding at 10 μM)
O[C@@H]1[C@H](O)[C@@H]2C[C@@H]2[C@H]1n1ccc2c(NC(C3CC3)C3CC3)nc(C#Cc3ccccc3)nc21 [compound 56, (1R,2R,3S,4R,5S)-4-(4-((Dicyclopropylmethyl)amino)-2-(phenylethynyl)-7H-pyrrolo[2,3-d]pyrimidin-7-yl)bicyclo[3.1.0]hexane-2,3-diol] | 4210 ± 1840 nM |  | 670 nM |  |  | 178 ± 32 nM | 2550 ± 660 nM | 1440 ± 750 nM | KOR, inhibition of radioligand binding at 10 μM (class) (KOR [2]; Table 5, 10 μM): ^d (30–50% inhibition of radioligand binding at 10 μM); Ki (hA1AR): 650 nM
CCOC(=O)[C@@]12C[C@@H]1[C@@H](n1ccc3c(NC)nc(C#Cc4ccccc4)nc31)[C@H](O)[C@@H]2O [compound 40, Ethyl(1S,2R,3S,4R,5S)-2,3-dihydroxy-4-(4-(methylamino)-2-(phenylethynyl)-7H-pyrrolo[2,3-d]pyrimidin-7-yl)bicyclo[3.1.0]hexane-1-carboxylate] | > 10000 nM | –66% |  | 35% | 91.5 ± 23.7 nM | 344 ± 40 nM | 1780 ± 410 nM | 1480 ± 450 nM | inhibition at 10 µM (hA2AAR): 22%; βarrestin2 recruitment, Imax (% 120) (KOR [4]; antagonism of 1 μM U69593 98): 76 ± 2 % 120
CNc1nc(C#Cc2ccc(Cl)s2)nc2c1ncn2[C@H]1[C@H](O)[C@H](O)[C@]2(C(=O)OCCCc3ccccc3)C[C@H]12 [compound 37] | 1090 ± 290 nM | <20% |  |  | 8920 ± 1080 nM | 132 ± 68 nM |  |  | DOR, inhibition of radioligand binding at 10 μM (class) (DOR [1]; Table 2): ^d (<30% inhibition of radioligand binding at 10 μM); MOR, inhibition of radioligand binding at 10 μM (class) (MOR [3]): ^d (<30% inhibition of radioligand binding at 10 μM)
Oc1ccc2c3c1O[C@H]1c4[nH]c5c(c4C[C@@]4(O)[C@@H](C2)N(CC2CC2)CC[C@]314)C[C@@]1(O)[C@H]2Cc3ccc(O)c4c3[C@@]1(CCN2CC1CC1)[C@H]5O4 [compound 120, Norbinaltorphimine, reference compound] |  |  |  |  |  |  |  |  | βarrestin2 recruitment, Imax (% 120) (KOR [4]): 100 % 120
